pIC50: −log10 of the molar value.
target: T1, USP7 (Homo sapiens, UniProt Q93009); assay: USP7 Assay A (Ubitquin-Rhodamine 110 Assay); format: biochemical; conditions: USP7 assay A and B (table does not say which assay per compound); Ubiquitin-Rhodamine 110 substrate; read-out: USP7_IC50
T1 construct: USP7, construct USP7 (208-1102) 6*His, Viva Biotech; 6xHis (C); purchased Viva Biotech
Protocol: Each assay was performed in a final volume of 15 μL in assay buffer containing 20 mM Tris-HCl (pH 8.0, (1M Tris-HCl, pH 8.0 solution; Corning 46-031-CM)), 1 mM GSH (L-Glutathione reduced; Sigma #G4251), 0.03% BGG ([…], Sigma, #G7516-25G), and 0.01% Triton X-100 (Sigma, #T9284-10L). […] 5 μL of 2× enzyme was added to assay plates (pre-stamped with compound) preincubated with USP7 for 30 minutes and then 5 μL of 2×Ub-Rh110 was added to assay plates. […] Fluorescence was read on the Envision (Excitation at 485 nm and Emission at 535 nm; Perkin Elmer) or on the PheraSTAR (Excitation at 485 nm and Emission at 535 nm; BMG Labtech).
Data from USP7 Assays A and B were reported as percent inhibition (inh) compared with control wells based on the following equation: % inh=1−((FLU−AveLow)/(AveHigh−AveLow)) where FLU=measured Fluorescence (See Tables 6-10). AveLow=average Fluorescence of no enzyme control (n=16). AveHigh=average Fluorescence of DMSO control (n=16). […] Data is fitted using the Levenburg Marquardt algorithm.

T1 sequence (Q93009 208-1102): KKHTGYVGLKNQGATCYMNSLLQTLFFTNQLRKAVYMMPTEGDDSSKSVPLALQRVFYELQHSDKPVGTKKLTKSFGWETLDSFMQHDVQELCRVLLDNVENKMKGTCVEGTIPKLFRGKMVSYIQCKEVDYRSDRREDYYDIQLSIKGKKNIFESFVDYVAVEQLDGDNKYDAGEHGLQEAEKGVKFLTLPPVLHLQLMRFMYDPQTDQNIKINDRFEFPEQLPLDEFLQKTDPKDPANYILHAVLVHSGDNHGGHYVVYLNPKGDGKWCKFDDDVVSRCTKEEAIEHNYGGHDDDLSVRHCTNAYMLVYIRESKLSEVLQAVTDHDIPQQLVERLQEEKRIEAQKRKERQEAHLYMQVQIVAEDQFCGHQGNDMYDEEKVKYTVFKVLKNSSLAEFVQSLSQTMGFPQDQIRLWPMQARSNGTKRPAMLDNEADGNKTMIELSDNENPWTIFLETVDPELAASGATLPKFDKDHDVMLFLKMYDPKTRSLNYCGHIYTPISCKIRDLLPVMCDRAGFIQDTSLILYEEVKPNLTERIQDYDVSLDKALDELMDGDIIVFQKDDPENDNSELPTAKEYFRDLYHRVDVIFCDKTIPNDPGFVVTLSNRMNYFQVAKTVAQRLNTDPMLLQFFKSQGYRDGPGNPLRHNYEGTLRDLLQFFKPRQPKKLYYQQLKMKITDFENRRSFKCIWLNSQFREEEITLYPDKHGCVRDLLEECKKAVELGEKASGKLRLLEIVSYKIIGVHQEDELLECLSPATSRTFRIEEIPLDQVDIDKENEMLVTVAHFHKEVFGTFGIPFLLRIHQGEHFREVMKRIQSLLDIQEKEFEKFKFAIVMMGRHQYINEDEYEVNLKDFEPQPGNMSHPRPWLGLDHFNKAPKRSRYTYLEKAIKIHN

| Compound | pIC50 |
| --- | --- |
| Cn1ncc2c(=O)n(CC3(O)CCN(C(=O)c4ccc(-c5ccc(C(=O)N6CCCCC6)cc5)cc4Cl)CC3)cnc21 [Compound I-55] | 5.00 to 6.00 |
| C[C@H](CC(=O)N1CCC(O)(Cn2cnc3c(cnn3C)c2=O)CC1)c1ccccc1 [Compound I-57] | 6.00 to 6.70 |
| C[C@H](CC(=O)N1CCC(O)(Cn2cnc3c(cnn3C(C)(C)C)c2=O)CC1)c1ccccc1 [Compound I-59] | 6.00 to 6.70 |
| CC(C)(C)n1ncc2c(=O)n(CC3(O)CCN(C(=O)c4ccc(Oc5ccccc5)cc4)CC3)cnc21 [Compound I-60] | < 5.00 |
| CC(C)n1ncc2c(=O)n(CC3(O)CCN(C(=O)C[C@@H](C)c4ccccc4)CC3)cnc21 [Compound I-61] | 6.00 to 6.70 |

same assay, conditions: USP7 assay A and B (table does not say which assay per compound); read-out: USP7_IC50

| Compound | pIC50 |
| --- | --- |
| C[C@@H](n1cnc2c(cnn2-c2ccc(F)cc2)c1=O)C1(O)CCN(C(=O)c2ccc(F)cc2)CC1 [Compound I-44] | 5.00 to 6.00 |
| C=CS(=O)(=O)Nc1ccccc1-c1ccc(C(=O)N2CCC(O)(Cn3cnc4c(cnn4C)c3=O)CC2)cc1 [Compound I-45, N-(4′-(4-Hydroxy-4-((1-methyl-4-oxo-1,4-dihydro-5H-pyrazolo[3,4-d]pyrimidin-5-yl)methyl)piperidine-1-carbonyl)-[1,1′-biphenyl]-2-yl)ethenesulfonamide] | 6.00 to 6.70 |
| O=C(c1ccccc1)N1CCC(O)(Cn2cnc3c(ccn3-c3ccc(F)cc3)c2=O)CC1 [Compound I-48] | 5.00 to 6.00 |
| NCc1cccc(-n2ccc3c(=O)n(CC4(O)CCN(C(=O)c5ccc(F)cc5)CC4)cnc32)c1 [Compound I-51, 7-(3-(Aminomethyl)phenyl)-3-((1-(4-fluorobenzoyl)-4-hydroxypiperidin-4-yl)methyl)-3,7-dihydro-4H-pyrrolo[2,3-d]pyrimidin-4-one] | 5.00 to 6.00 |
| CC(C)n1ncc2c(=O)n(CC3(O)CCN(C(=O)c4ccc(Oc5ccccc5)cc4)CC3)cnc21 [Compound I-62] | < 5.00 |
| C[C@H](CC(=O)N1CCC(O)(Cn2cnc3c(cnn3-c3ccc(F)cc3)c2=O)CC1)c1ccccc1 [Compound I-65] | > 6.70 |
| O=C(c1ccc(Oc2ccccc2)cc1)N1CCC(O)(Cn2cnc3c(cnn3-c3ccc(F)cc3)c2=O)CC1 [Compound I-66] | 6.00 to 6.70 |
| C[C@H](CC(=O)N1CCC(O)(Cn2cnc3c(cnn3-c3cccc(C(F)(F)F)c3)c2=O)CC1)c1ccccc1 [Compound I-67] | > 6.70 |
| Cc1ccc(-n2ncc3c(=O)n(CC4(O)CCN(C(=O)C[C@@H](C)c5ccccc5)CC4)cnc32)cc1 [Compound I-68] | > 6.70 |
| Cc1ccc(-n2ncc3c(=O)n(CC4(O)CCN(C(=O)c5ccc(Oc6ccccc6)cc5)CC4)cnc32)cc1 [Compound I-69] | 6.00 to 6.70 |
| C[C@H](CC(=O)N1CCC(O)(Cn2cnc3c(cnn3-c3ccccn3)c2=O)CC1)c1ccccc1 [Compound I-70] | 6.00 to 6.70 |
| C[C@H](CC(=O)N1CCC(O)(Cn2cnc3c(cnn3-c3ccccc3)c2=O)CC1)c1ccccc1 [Compound I-72] | > 6.70 |
| O=C(c1ccc(Oc2ccccc2)cc1)N1CCC(O)(Cn2cnc3c(cnn3-c3ccccc3)c2=O)CC1 [Compound I-73] | 6.00 to 6.70 |
| CC(CC(=O)N1CCC(O)(Cn2cnc3c(cnn3C)c2=O)CC1)c1ccc(F)cc1 (centres unmarked) [Compound I-78] | 6.00 to 6.70 |
| Cn1ncc2c(=O)n(CC3(O)CCN(C(=O)c4ccc(-c5ccccc5CC#N)cc4)CC3)cnc21 [Compound I-83] | 5.00 to 6.00 |
| CC(CC(=O)N1CCC(O)(Cn2cnc3c(cnn3C)c2=O)CC1)n1cccc1 (centres unmarked) [Compound I-105] | 6.00 to 6.70 |
| Cn1ncc2c(=O)n(CC3(O)CCN(C(=O)c4ccc(S(=O)(=O)Nc5ccccc5)cc4)CC3)cnc21 [Compound I-106] | 5.00 to 6.00 |
| CN(C(=O)c1ccc(C(=O)N2CCC(O)(Cn3cnc4c(cnn4C)c3=O)CC2)cc1)c1ccccc1 [Compound I-108] | 5.00 to 6.00 |
| Cn1ncc2c(=O)n(CC3(O)CCN(C(=O)c4ccc(NS(=O)(=O)c5ccccc5)cc4)CC3)cnc21 [Compound I-111] | 5.00 to 6.00 |

| Compound | pIC50 |
| --- | --- |
| Cn1ncc2c(=O)n(CC3(O)CCN(C(=O)c4ccc5c(c4)CCN(c4ccccc4)C5)CC3)cnc21 [Compound I-115] | 5.00 to 6.00 |
| CN(Cc1ccccc1)c1ccc(C(=O)N2CCC(O)(Cn3cnc4c(cnn4C)c3=O)CC2)cc1 [Compound I-119] | 6.00 to 6.70 |
| O=C(C[C@H](c1ccccc1)C(F)(F)F)N1CCC(O)(Cn2cnc3c(cnn3-c3ccccc3)c2=O)CC1 [Compound I-141] | 5.00 to 6.00 |
| O=C(C[C@@H](c1ccccc1)C(F)(F)F)N1CCC(O)(Cn2cnc3c(cnn3-c3ccccc3)c2=O)CC1 [Compound I-142] | > 6.70 |
| Cn1ncc2c(=O)n(CC3(O)CCN(C(=O)C[C@H](c4ccccc4)C(F)(F)F)CC3)cnc21 [Compound I-143] | 5.00 to 6.00 |
| Cc1ccc(-n2ncc3c(=O)n(CC4(O)CCN(C(=O)C[C@H](c5ccccc5)C(F)(F)F)CC4)cnc32)cc1 [Compound I-144] | 5.00 to 6.00 |
| Cc1ccc(-n2ncc3c(=O)n(CC4(O)CCN(C(=O)C[C@@H](c5ccccc5)C(F)(F)F)CC4)cnc32)cc1 [Compound I-145] | > 6.70 |
| Cn1ncc2c(=O)n(CC3(O)CCN(C(=O)CC(c4ccccc4)C(F)F)CC3)cnc21 (centres unmarked) [Compound I-147] | 5.00 to 6.00 |
| O=C(c1cccn1Cc1ccccc1)N1CCC(O)(Cn2cnc3c(cnn3-c3ccccc3)c2=O)CC1 [Compound I-150] | > 6.70 |
| O=C(c1ccc(Oc2ccccc2)cc1)N1CCC(O)(Cn2cnc3c(cnn3C3CC3)c2=O)CC1 [Compound I-152] | 5.00 to 6.00 |
| O=C(c1ccccc1)N1CCC(O)(Cn2cnc3c(cnn3-c3ccccc3)c2=O)CC1 [Compound I-153] | 5.00 to 6.00 |
| CC(=O)N1CCC(O)(Cn2cnc3c(cnn3-c3ccccc3)c2=O)CC1 [Compound I-154] | 5.00 to 6.00 |
| Cn1cnc(C(=O)N2CCC(O)(Cn3cnc4c(cnn4-c4ccccc4)c3=O)CC2)c1 [Compound I-155] | 5.00 to 6.00 |
| O=C(c1ccc(C2CC2)cc1)N1CCC(O)(Cn2cnc3c(cnn3-c3ccccc3)c2=O)CC1 [Compound I-156] | 6.00 to 6.70 |
| COc1ccc(C(=O)N2CCC(O)(Cn3cnc4c(cnn4-c4ccccc4)c3=O)CC2)cc1 [Compound I-157] | 6.00 to 6.70 |
| O=C(C1CC1)N1CCC(O)(Cn2cnc3c(cnn3-c3ccccc3)c2=O)CC1 [Compound I-158] | 5.00 to 6.00 |
| O=C(c1ccc(=O)[nH]c1)N1CCC(O)(Cn2cnc3c(cnn3-c3ccccc3)c2=O)CC1 [Compound I-160] | 6.00 to 6.70 |
| CS(=O)(=O)Nc1ccc(C(=O)N2CCC(O)(Cn3cnc4c(cnn4-c4ccccc4)c3=O)CC2)cc1 [Compound I-164] | 6.00 to 6.70 |
| C=CS(=O)(=O)NCC(Cc1ccccc1)C(=O)N1CCC(O)(Cn2cnc3c(cnn3C)c2=O)CC1 (centres unmarked) [Compound I-170] | < 5.00 |

| Compound | pIC50 |
| --- | --- |
| NC(=O)c1cccc(C(=O)N2CCC(O)(Cn3cnc4c(cnn4-c4ccccc4)c3=O)CC2)c1 [Compound I-172] | 5.00 to 6.00 |
| C=CS(=O)(=O)Nc1ccc(C(=O)N2CCC(O)(Cn3cnc4c(cnn4-c4ccccc4)c3=O)CC2)cc1 [Compound I-173] | 6.00 to 6.70 |
| C[C@H](CC(=O)N1CCC(O)(Cn2cnc3c(cnn3-c3ccccc3)c2=O)CC1)n1cccn1 [Compound I-175] | > 6.70 |
| C[C@@H](CC(=O)N1CCC(O)(Cn2cnc3c(cnn3-c3ccccc3)c2=O)CC1)n1cccn1 [Compound I-176] | 5.00 to 6.00 |
| C[C@H](CC(=O)N1CCC(O)(Cn2cnc3c(cnn3-c3ccccc3)c2=O)CC1)n1cccc1 [Compound I-177] | > 6.70 |
| C[C@@H](CC(=O)N1CCC(O)(Cn2cnc3c(cnn3-c3ccccc3)c2=O)CC1)n1cccc1 [Compound I-178] | 5.00 to 6.00 |
| NC(=O)c1ccc(C(=O)N2CCC(O)(Cn3cnc4c(cnn4-c4ccccc4)c3=O)CC2)cc1 [Compound I-179] | 6.00 to 6.70 |
| CC(=O)Nc1cccc(C(=O)N2CCC(O)(Cn3cnc4c(cnn4-c4ccccc4)c3=O)CC2)c1 [Compound I-181] | 5.00 to 6.00 |
| CNS(=O)(=O)c1ccc(C(=O)N2CCC(O)(Cn3cnc4c(cnn4-c4ccccc4)c3=O)CC2)cc1 [Compound I-182] | 5.00 to 6.00 |
| CNC(=O)c1ccc(C(=O)N2CCC(O)(Cn3cnc4c(cnn4-c4ccccc4)c3=O)CC2)cc1 [Compound I-184] | 6.00 to 6.70 |
| O=C(C1CCCCC1)N1CCC(O)(Cn2cnc3c(cnn3-c3ccccc3)c2=O)CC1 [Compound I-189] | 6.00 to 6.70 |
| O=C(c1ccc(F)cc1)N1CCC(O)(Cn2cnc3c(cnn3-c3ccccc3)c2=O)CC1 [Compound I-190] | 6.00 to 6.70 |
| O=C(c1ccncc1)N1CCC(O)(Cn2cnc3c(cnn3-c3ccccc3)c2=O)CC1 [Compound I-191] | 5.00 to 6.00 |
| O=C(C1CCC1)N1CCC(O)(Cn2cnc3c(cnn3-c3ccccc3)c2=O)CC1 [Compound I-194] | 5.00 to 6.00 |
| O=C(C1CCCC1)N1CCC(O)(Cn2cnc3c(cnn3-c3ccccc3)c2=O)CC1 [Compound I-195] | 6.00 to 6.70 |
| Cc1cc(C)cc(C(=O)N2CCC(O)(Cn3cnc4c(cnn4-c4ccccc4)c3=O)CC2)c1 [Compound I-197] | 5.00 to 6.00 |
| Cc1ccc(C(=O)N2CCC(O)(Cn3cnc4c(cnn4-c4ccccc4)c3=O)CC2)cc1C [Compound I-200] | 5.00 to 6.00 |
| COc1cc(OC)cc(C(=O)N2CCC(O)(Cn3cnc4c(cnn4-c4ccccc4)c3=O)CC2)c1 [Compound I-203] | < 5.00 |
| Cc1cccc(C(=O)N2CCC(O)(Cn3cnc4c(cnn4-c4ccccc4)c3=O)CC2)c1F [Compound I-206] | 5.00 to 6.00 |

From patent US9902728B2, “Pyrrolo and pyrazolopyrimidines as ubiquitin-specific protease 7 inhibitors” (Forma Therapeutics, Inc., priority 2014, dated 2018)
